Test [1] deals with T1, Gal-3 (galectin-3) (Homo sapiens, UniProt P17931).
T1 construct: gene LGALS3; ELISA by an established protocol of Elling and co-workers
In words: ELISA-type inhibition of binding to asialofetuin. The conditions noted are these: read-out: Gal-3 IC50 ± SD [× 10^-6M]^a). The text has this: ELISA-type inhibition of binding to asialofetuin on Gal-3 (galectin-3)

In the next test the target is T2, Gal-1 (galectin-1) (Homo sapiens, UniProt P09382).
T2 construct: gene LGALS1; ELISA by an established protocol of Elling and co-workers
In words: ELISA-type inhibition of binding to asialofetuin. The settings on record: read-out: Gal-1 IC50 ± SD [× 10^-6M]^a). The text has this:
ELISA-type inhibition of binding to asialofetuin on Gal-1 (galectin-1)

Test [2] addresses T1, Gal-3 (galectin-3). In words: ELISA-type inhibition and SPR inhibition. Format: biochemical. The conditions noted are these: glucose non-binding control; PBS pH 7.5.

T1 sequence (P17931 2-250): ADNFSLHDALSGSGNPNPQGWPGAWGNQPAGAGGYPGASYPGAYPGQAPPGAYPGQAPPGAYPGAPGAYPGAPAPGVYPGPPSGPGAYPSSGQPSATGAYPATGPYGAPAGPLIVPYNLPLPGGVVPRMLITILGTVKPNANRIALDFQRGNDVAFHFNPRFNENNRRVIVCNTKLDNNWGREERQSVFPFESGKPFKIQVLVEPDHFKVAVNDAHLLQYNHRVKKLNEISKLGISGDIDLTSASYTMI
T2 sequence (P09382 2-135): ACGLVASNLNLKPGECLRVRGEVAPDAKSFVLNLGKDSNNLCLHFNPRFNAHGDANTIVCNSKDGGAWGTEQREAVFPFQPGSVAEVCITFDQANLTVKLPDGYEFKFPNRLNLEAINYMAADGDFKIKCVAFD

`CC(=O)NCCOCCOCCNC(=O)CCC(=O)NCCN(CCNC(=O)CCC(N)=O)C(=O)CCc1cn([C@@H]2O[C@H](CO)[C@@H](O[C@@H]3O[C@H](CO)[C@H](O)[C@H](O)[C@H]3O)[C@H](O)[C@H]2O)nn1` [1b, Lac(1)-2-Ac]: the IC50 was found to be 123 ± 3 µM at Gal-3 (galectin-3) [1] and 296 ± 70 µM on Gal-1 (galectin-1). As for `CC(=O)NCCOCCOCCNC(=O)CCC(=O)NCCN(CCNC(=O)CCC(=O)NCCN(CCNC(=O)CCC(=O)NCCN(CCNC(=O)CCC(=O)NCCN(CCNC(=O)CCC(=O)NCCN(CCNC(=O)CCC(N)=O)C(=O)CCc1cn(CCO[C@H]2O[C@H](CO)[C@@H](O)[C@H](O)[C@H]2O)nn1)C(=O)CCC(=O)NCc1ccccc1)C(=O)CCc1cn(CCO[C@H]2O[C@H](CO)[C@@H](O)[C@H](O)[C@H]2O)nn1)C(=O)CCC(=O)NCc1ccccc1)C(=O)CCc1cn(CCO[C@H]2O[C@H](CO)[C@@H](O)[C@H](O)[C@H]2O)nn1` [10b, Glc(1,3,5)-Bz(2,4)-6-Ac], the no inhibition result at Gal-3 (galectin-3) [2] was “nonbinding carbohydrate ligand (glucose, 9b-13b), we see no inhibition in both ELISA and SPR”. Consider `CC(=O)NCCOCCOCCNC(=O)CCC(=O)NCCN(CCNC(=O)CCC(=O)NCCN(CCNC(=O)CCC(=O)NCCN(CCNC(=O)CCC(=O)NCCN(CCNC(=O)CCC(=O)NCCN(CCNC(=O)CCC(N)=O)C(=O)CCc1cn(CCO[C@H]2O[C@H](CO)[C@@H](O)[C@H](O)[C@H]2O)nn1)C(=O)CCC(=O)Nc1ccc(N)cc1)C(=O)CCc1cn(CCO[C@H]2O[C@H](CO)[C@@H](O)[C@H](O)[C@H]2O)nn1)C(=O)CCC(=O)Nc1ccc(N)cc1)C(=O)CCc1cn(CCO[C@H]2O[C@H](CO)[C@@H](O)[C@H](O)[C@H]2O)nn1` [11b, Glc(1,3,5)-pNH2Ph(2,4)-6-Ac], for which, at Gal-3 (galectin-3) [2], the no inhibition entry is “nonbinding carbohydrate ligand (glucose, 9b-13b), we see no inhibition in both ELISA and SPR”.

For `CC(=O)NCCOCCOCCNC(=O)CCC(=O)NCCN(CCNC(=O)CCC(=O)NCCN(CCNC(=O)CCC(=O)NCCN(CCNC(=O)CCC(=O)NCCN(CCNC(=O)CCC(=O)NCCN(CCNC(=O)CCC(N)=O)C(=O)CCc1cn(CCO[C@H]2O[C@H](CO)[C@@H](O)[C@H](O)[C@H]2O)nn1)C(=O)CCC(=O)Nc1ccc(S(=O)(=O)O)cc1)C(=O)CCc1cn(CCO[C@H]2O[C@H](CO)[C@@H](O)[C@H](O)[C@H]2O)nn1)C(=O)CCC(=O)Nc1ccc(S(=O)(=O)O)cc1)C(=O)CCc1cn(CCO[C@H]2O[C@H](CO)[C@@H](O)[C@H](O)[C@H]2O)nn1` [12b, Glc(1,3,5)-pSO3H Ph(2,4)-6-Ac], the no inhibition entry at Gal-3 (galectin-3) [2] is “nonbinding carbohydrate ligand (glucose, 9b-13b), we see no inhibition in both ELISA and SPR”.

(Values after paper PMC9831253, “Sequence-Defined Heteromultivalent Precision Glycomacromolecules Bearing Sulfonated/Sulfated Nonglycosidic Moieties Preferentially Bind Galectin-3 and Delay Wound Healing of a Galectin-3 Positive Tumor Cell Line in an In Vitro Wound Scratch Assay” (Macromolecular bioscience, 2020).)
